Legend:
[1] = Solubility in water; format: physicochemical
[2] = test system: Uncommon Cancers (Neoplastic Disorders); assay: Patients with uncommon cancers treated with AS2-1 in combination with other drugs: response and survival; format: in vivo, human; settings: GIST patient, before the combination of AS and sunitinib
Description: Patients diagnosed with 34 types of terminal cancer were treated with Antineoplaston AS2-1 (AS) therapy to reduce and/or abolish tumors and other signs of cancer and reduce and/or abolish expression of cancer-causing genes. In brief, patients admitted for treatment herein were diagnosed with terminal, Stage IV, cancers of varying types with multiple metastases and had failed standard-of-care regimens, except for a small number of patients who were treatment naive, but were not candidates for standard treatment because of very advanced disease and less than 6 months life expectancy. The estimated survival for these patients was from less than one to less than 6 months. The patients had radiological evidence of advanced metastatic cancer performed within 4 weeks from treatment start and genomic analysis, usually ordered at admission, including Guardant 360 blood test and/or Foundation One and/or Tempus blood or tissue test and/or SEMA4 tissue test. […]
At baseline, history taking, physical examination, necessary laboratory, genomic and radiological evaluations were performed. Two largest perpendicular diameters of the radiologically significant lesions were measured including MRI contrast-enhanced lesions in the brain and spinal cord. […] Mixed response was determined when there was a CR or PR of some lesions and PD of the other lesions. […]

[3] = test system: mutated and amplified genes (ctDNA) in blood; assay: Molecular response by repeated Guardant 360 tests (ctDNA in blood); format: in vivo, human; settings: individual patients; genes named in the cited cell or block
Description: Molecular response was determined by repeated Guardant 360 tests. […] Herein, blood samples were collected from patients and provided to Guardant for panel testing wherein a “panel” was defined as five or more ctDNA genes or gene mutation variants tested on the same day on the same member by the same rendering provider (i.e., Guardant).

## NC(=O)C(CCC(=O)[O-])NC(=O)Cc1ccccc1.[Na+] (stereo not shown) [Iso-PG, phenylacetylisoglutaminate sodium]
[1]
  solubility in water: soluble in water

## Cc1ccc(NC(=O)c2ccc(CN3CCN(C)CC3)cc2)cc1Nc1nccc(-c2cccnc2)n1 [imatinib]
[2]
  response to prior targeted therapy: failed to respond

## CCc1cc2c(cc1N1CCC(N3CCOCC3)CC1)C(C)(C)c1[nH]c3cc(C#N)ccc3c1C2=O [alectinib]
[3]
  Genes affected by AS / molecular response: status of mutated or amplified genes in follow-up blood genomic analysis: Elimination of the ALK fusion

## C=CC(=O)Nc1cc(Nc2nccc(-c3cn(C)c4ccccc34)n2)c(OC)cc1N(C)CCN(C)C [osimertinib]
[3]
  Genes affected by AS / molecular response: status of mutated or amplified genes in follow-up blood genomic analysis: elimination of the two EGFR mutations
